Legend:
[1] = system: mRNA for the heavy chain DYNC1H1 of cytoplasmic dynein; assay: Dynein modulation assay (Panomics Quantigene multiplex, branched DNA) in keratinocytes; assay type: cell-based, human; details: for Effect (down-regulation scale) / Effect (up-regulation scale): keratinocytes (K), 24 hours
Method: (§1) Normal human dermal fibroblasts or keratinocytes were cultured in 96-well tissue culture treated plates, containing appropriate culture medium. Stock solution of actives were made in an appropriate vehicle (water/Ethanol/Propylene glycol). Cells were treated with test material or respective vehicle control diluted in growth medium for 24 hours in a humidified 37° C. Incubator with 10% CO2. After incubation, growth medium from each plate was removed and 100 μL of lysis buffer was added to the wells and placed in 37° C. Incubator with 10% CO2 for 30 minutes. At the end of incubation, the cells are collected in freezer plates and placed in −80° C. freezer, until analysis. Changes in mRNA for Dynein after treatment were analyzed using Panomics Quantigene multiplex assay that employs a branched DNA technology, following manufacturer's instructions (Affymetrix, Calif.). Percent increase (up-regulation) or decrease (down-regulation) in mRNA for the heavy chain DYNC1H1 of cytoplasmic dynein was calculated by comparing the test results to the control. The percent up-regulation or down-regulation is converted to a scaled score as shown below in Table 3.

[2] = system: mRNA for the heavy chain DYNC1H1 of cytoplasmic dynein; assay: Dynein modulation assay (Panomics Quantigene multiplex, branched DNA) in fibroblasts; assay type: cell-based, human; details: fibroblasts (F), 24 hours
Method: as §1

SMILES: CC/C=C\CCCCCO [cis-6-Nonenol]
- Effect (down-regulation scale) ([1]; Conc. 0.0001%): − (21-40)

SMILES: CCOCCCNC(=O)c1coc(CN(CCCOCC)C(=O)Nc2ccccc2C)n1 [Compound 4]
- Effect (up-regulation scale) ([2]; Conc. 0.00005%): ++ (41-60)

SMILES: CCOc1ccc(C(=O)CC(Sc2ccc(Cl)cc2)C(=O)O)cc1 (stereo not shown) [Compound 5]
- Effect (up-regulation scale) ([2]; Conc. 0.00001%): ++ (41-60)

SMILES: CCC=CCC=CCCO [3,6-Nonadienol]
- Effect (down-regulation scale) ([2]; Conc. 0.01%): − (21-40)

SMILES: CCCCC(CC)C(=O)Nc1ccc(N2CCN(C(=O)C3CCCCC3)CC2)cc1 (stereo not shown) [Compound 7]
- Effect (down-regulation scale) ([1]; Conc. 0.00005%): − (21-40)

SMILES: CCc1ccccc1NC(=O)N(Cc1ccc(OS(C)(=O)=O)cc1)CC(C)C [Compound 8]
- Effect (down-regulation scale) ([2]; Conc. 0.0005%): − (21-40)

SMILES: O=C(O)c1cc(Cl)ccc1O [5-Chlorosalicylic acid]
- Effect (down-regulation scale) ([1]; Conc. 0.1%): −− (41-60)
- reduction of mRNA for the heavy chain DYNC1H1 of cytoplasmic dynein ([1]; keratinocytes, p=0.02): 45.03%

SMILES: CCCCc1ccc(C(=O)Nc2cccc(C3NC(=S)N(C)C(C)=C3C(=O)OCCOC)c2)cc1 (stereo not shown) [Compound 3]
- Effect (up-regulation scale) ([2]; Conc. 0.00005%): ++ (41-60)

SMILES: CC1=C(CC/C(C)=C/COC[C@@H](O)[C@@H](O)[C@H](O)[C@H](O)CO)C(C)(C)C(C)CC1 (stereo partly drawn) [Chalmicrin, 1-O—[(E)-3-Methyl-5-(2,5,6,6-tetramethyl-1-cyclohexen-1-yl)-2-pentenyl]-D-mannitol]
- Effect (up-regulation scale) ([1]; Conc. 0.0001%): ++++ (>81)

SMILES: CCOCCCNC(=O)c1coc(CN(CCCOCC)C(=O)c2cccc(Br)c2)n1 [Compound 6]
- Effect (down-regulation scale) ([1]; Conc. 0.0005%): − (21-40)

SMILES: CCCCCCCC(=O)Nc1ccc(N2CCN(C(=O)CC(C)(C)C)CC2)cc1 [Compound 2]
- Effect (up-regulation scale) ([1]; Conc. 0.0005%): ++ (41-60)

SMILES: CC(C)CN(Cc1ccc(OS(C)(=O)=O)cc1)S(=O)(=O)c1ccccc1 [Compound 1]
- Effect (up-regulation scale) ([2]; Conc. 0.00005%): ++ (41-60)

Source: patent US20120171133A1, “Modulation of Dynein in Skin” (AVON PRODUCTS, INC., priority 2010, published 2012)
